For data set [1], the system named is MCF7. In words: Cytotoxicity against human MCF7 cells at 100 uM. The format is functional.
In data set [2] the test system is Escherichia coli. Nature of the data set: Antimicrobial activity against Escherichia coli ATCC 25922 at 0.1 to 10 mM after 20 hrs by CLSI broth microdilution method. The data set is classed as functional, organism-based. On the technique in general: Broth dilution looks for growth in wells or tubes with falling amounts of substance.
For data set [3], the system named is Pseudomonas aeruginosa. Nature of the data set: Antimicrobial activity against Pseudomonas aeruginosa NCTC 10662 at 0.1 to 10 mM after 20 hrs by CLSI broth microdilution method. The data set is classed as functional, organism-based.
Data set [4] has as its system Enterococcus faecalis. Nature of the data set: Antimicrobial activity against Enterococcus faecalis ATCC 19433 at 0.1 to 10 mM after 20 hrs by CLSI broth microdilution method. The data set is classed as functional, organism-based.
The subject of data set [5] is Candida albicans. In words: Antimicrobial activity against Candida albicans ATCC 10231 at 0.1 to 10 mM after 20 hrs by CLSI broth microdilution method. The data set is classed as functional, organism-based.
Data set [6] has as its system Staphylococcus aureus. In words: Antimicrobial activity against methicillin-sensitive Staphylococcus aureus ATCC 25923 at 0.1 to 10 mM after 20 hrs by CLSI broth microdilution method. The format is functional, organism-based.
Data set [7] deals with MM96L. Nature of the data set: Cytotoxicity against human MM96L cells at 100 uM. The data set is classed as functional.
In data set [8] the test system is Staphylococcus aureus. In words: Antimicrobial activity against multidrug-resistant Staphylococcus aureus ATCC 43300 at 0.1 to 10 mM after 20 hrs by CLSI broth microdilution method. The data set is classed as functional, organism-based.
Data set [9] is described as follows: Cytotoxicity against human NFF cells at 100 uM. The format is cell-based. To be noted: read-out: INH.

Active and inactive are the calls of the source. The rule behind the calls is not given here.

The results in this text go back to ChEMBL document CHEMBL1221343, “Caelestines A-D, brominated quinolinecarboxylic acids from the Australian ascidian Aplidium caelestis” (J Nat Prod, 2010).

Regarding `O=C(O)c1cc(=O)c2cc(Br)c(Br)cc2[nH]1`, the inhibition at 100 µM in data set [1] was 49%; in data set [7], 69%. Moreover, the result in data set [2], in [3], in data set [4], in [5], in data set [6] and in data set [8] was inactive. The cytotoxicity at 100 µM in data set [9] turned out to be 66%.

With `COc1c(Br)c(Br)cc2c(=O)cc(C(=O)O)[nH]c12`, the figures for the inhibition at 100 µM in [1] and in data set [7] were 38% and 52%, respectively. In addition, the outcome in data set [2], in data set [3], in [4], in data set [5], in data set [6] and in data set [8] was inactive. For the same compound, in data set [9], the cytotoxicity at 100 µM was found to be 68%.

Regarding `O=C(O)c1cc(O)c2ccc(Br)cc2n1`, the inhibition at 100 µM amounted to 39% in [1] and 62% in [7]. Also, the outcome in data set [2], in data set [3], in data set [4], in [5], in data set [6] and in data set [8] was inactive. In addition, the cytotoxicity at 100 µM in data set [9] came to 57%.

For `COc1cc(Br)cc2c(=O)cc(C(=O)O)[nH]c12`, the inhibition at 100 µM in data set [1] was 40%; in [7] it was 54%. For the same compound, the outcome in data set [2], in data set [3], in [4], in data set [5], in [6] and in data set [8] was inactive. Besides, the cytotoxicity at 100 µM in [9] is 58%.

Usually inhibition stands for the share of the control response that was lost under treatment. Higher therefore signals strong suppression.
